Consider 55 compounds from patent US5504190A, “Equimolar multiple oligomer mixtures, especially oligopeptide mixtures” (priority 1994, dated 1996).

Converted amounts (≈) assume the structure as drawn.

The test system of the first assay is Escherichia coli (ATCC 25922). Briefly: antimicrobial assay, growth inhibition of E. coli (OD 620 nm). It counts as cell-based. To be noted: Tables 1 and 2. The procedure:
(§1) Escherichia coli (ATCC 25922) was used as Gram-negative (-) and Staphylococcus aureus (ATCC 29213) as Gram-positive (+) bacteria. Bacteria were grown overnight (about 18 hours) at 37° C. in Mueller-Hinton (MH) broth. This culture was reinoculated and incubated at 37° C. to reach the exponential phase of bacteria growth; i.e., a final bacterial suspension containing about 10^5 to 5×10^5 colony-forming units (CFU)/ml. The concentration of cells was established by plating 100 μl of different dilutions of the culture solution (e.g., 10^-2, 10^-3 and 10^-4) onto solid agar plates. Following an overnight (about 18 hours) incubation at 37° C., the CFU thus formed were counted on each agar plate.
(§2) 96-Well tissue culture plates were utilized, with eight wells per plate containing only medium as control blanks, whereas eight other wells contained medium plus cells as a positive growth control. These controls were used to detect possible medium contamination and to provide a measure of uninhibited growth of the microorganisms.
(§3) For initial screening studies, oligopeptide sets were added to the bacterial suspension to reach a final concentration of 1 mg/ml.
(§4) The plates were incubated overnight (about 18 hours) at 37° C., and the optical density (OD) determined at 620 nm after different times of incubation.
Ac-FRWLLH-NH2 [FRWLLH]: the IC-50 came out at 17 µg/mL and the MIC is 20 to 40 µg/mL.

For Ac-FRWLLV-NH2 [FRWLLV], the IC-50 was 24 µg/mL and the MIC lay in the range of 40 to 80 µg/mL.

Compound Ac-FRWWHF-NH2 [FRWWHF] gave an IC-50 of 30 µg/mL and an MIC of 31 to 62 µg/mL.

Take Ac-FRWWHH-NH2 [FRWWHH]: the IC-50 was 31 µg/mL and the MIC is 34 to 62 µg/mL.

Take Ac-FRWWHK-NH2 [FRWWHK]: the IC-50 was found to be 15 µg/mL and the MIC was in the range of 16 to 32 µg/mL.

Ac-FRWWHL-NH2 [FRWWHL]: the IC-50 was 31 µg/mL and the MIC was in the range of 62 to 125 µg/mL.

Compound Ac-FRWWHR-NH2 [FRWWHR] yielded an IC-50 of 13 µg/mL and an MIC of 16 to 32 µg/mL.

Turning to Ac-FRWWHW-NH2 [FRWWHW], the IC-50 was found to be 27 µg/mL and the MIC was 62 to 125 µg/mL.

With Ac-RRWWMA-NH2 [RRWWMA], the IC-50 stood at 18 µg/mL and the MIC is 20 to 32 µg/mL.

Consider Ac-RRWWMC-NH2 [RRWWMC], for which the IC-50 was determined as 12 µg/mL and the MIC was 31 to 62 µg/mL.

Ac-RRWWMF-NH2 [RRWWMF] yielded an IC-50 of 18 µg/mL and an MIC of 20 to 32 µg/mL.

As to Ac-RRWWMG-NH2 [RRWWMG], the IC-50 came to 9 µg/mL and the MIC was in the range of 10 to 16 µg/mL.

Compound Ac-RRWWMH-NH2 [RRWWMH] had an IC-50 of 24 µg/mL and an MIC of 31 to 62 µg/mL.

Ac-RRWWMI-NH2 [RRWWMI] returned an IC-50 of 12 µg/mL and an MIC of 16 to 32 µg/mL.

Regarding Ac-RRWWMK-NH2 [RRWWMK], the IC-50 is 14 µg/mL and the MIC was in the range of 16 to 32 µg/mL.

Ac-RRWWML-NH2 [RRWWML] gave an IC-50 of 15 µg/mL and an MIC of 16 to 32 µg/mL.

On to Ac-RRWWMM-NH2 [RRWWMM], for which the IC-50 amounted to 18 µg/mL and the MIC fell in the range of 20 to 32 µg/mL.

The compound Ac-RRWWMN-NH2 [RRWWMN] came in with an IC-50 of 25 µg/mL and an MIC of 31 to 62 µg/mL.

Turning to Ac-RRWWMP-NH2 [RRWWMP], the IC-50 came to 26 µg/mL and the MIC fell in the range of 31 to 62 µg/mL.

For Ac-RRWWMR-NH2 [RRWWMR], the IC-50 amounted to 9 µg/mL and the MIC fell in the range of 10 to 16 µg/mL.

Consider Ac-RRWWMS-NH2 [RRWWMS], for which the IC-50 worked out at 17 µg/mL and the MIC lay within 20 to 32 µg/mL.

Consider Ac-RRWWMT-NH2 [RRWWMT], for which the IC-50 came to 18 µg/mL and the MIC was in the range of 20 to 32 µg/mL.

Ac-RRWWMV-NH2 [RRWWMV] showed an IC-50 of 15 µg/mL and an MIC of 16 to 32 µg/mL.

On to Ac-RRWWMW-NH2 [RRWWMW], for which the IC-50 was found to be 15 µg/mL and the MIC lay in the range of 16 to 32 µg/mL.

As to Ac-RRWWMY-NH2 [RRWWMY], the IC-50 was 15 µg/mL and the MIC was in the range of 16 to 32 µg/mL.

The test system of the next assay is Staphylococcus aureus (ATCC 29213). Briefly: microbe, parasite or virus in culture. To be noted: 7-mer studies, Tables 5 and 6 and parent 6-mer. The procedure:
as §1, §2, §3, §4
On to Ac-CRRWWRF-NH2 [CRRWWRF], for which the IC-50 was 6.3 µg/mL and the MIC lay in the range of 8 to 16 µg/mL.

Take Ac-FRRWWRF-NH2 [FRRWWRF]: the IC-50 was 5.9 µg/mL and the MIC lay in the range of 8 to 16 µg/mL.

Consider Ac-LRRWWRF-NH2 [LRRWWRF], for which the IC-50 came to 6.1 µg/mL and the MIC fell in the range of 8 to 16 µg/mL.

As for Ac-RRRWWRF-NH2 [RRRWWRF], the IC-50 was determined as 8 µg/mL and the MIC lay within 8 to 16 µg/mL.

As to “Ac-RRWWRF-NH2 [RRWWRF, Ac-Arg-Arg-Trp-Trp-Arg-PheNH2]”, the IC-50 came to 8.7 µg/mL.

Ac-RRWWRFC-NH2 [RRWWRFC]: the IC-50 is 6.2 µg/mL and the MIC is 8 to 16 µg/mL.

Consider Ac-RRWWRFI-NH2 [RRWWRFI], for which the IC-50 was 6.9 µg/mL and the MIC was in the range of 8 to 16 µg/mL.

Take Ac-RRWWRFL-NH2 [RRWWRFL]: the IC-50 was 5.9 µg/mL and the MIC was in the range of 8 to 16 µg/mL.

In the case of Ac-RRWWRFV-NH2 [RRWWRFV], the IC-50 amounted to 7.9 µg/mL and the MIC lay in the range of 8 to 16 µg/mL.

As for Ac-RRWWRFY-NH2 [RRWWRFY], the IC-50 was 7.6 µg/mL and the MIC was 8 to 16 µg/mL.

Staying with this assay, now noted: ATCC 29213, 18 h.
“Ac-RRWWCR-NH2 [RRWWCR, Ac-Arg-Arg-Trp-Trp-Cys-Arg-NH2]”: the MIC amounted to 3.906 µg/mL.

For the compound “Ac-RRWWRF-NH2 [RRWWRF, Ac-Arg-Arg-Trp-Trp-Arg-PheNH2]”, the MIC lay in the range of 8 to 16 µg/mL.

Still in this assay, the particulars now being: Staphylococcus aureus, ATCC29213.
Turning to `CC1(C)S[C@@H]2[C@H](NC(=O)[C@H](N)c3ccccc3)C(=O)N2[C@H]1C(=O)O` [Ampicillin, reference compound], the MIC was found to be 4 µg/mL (≈ 11.4 µM).

Compound `CC[C@H]1OC(=O)[C@H](C)[C@@H](O[C@H]2C[C@@](C)(OC)[C@@H](O)[C@H](C)O2)[C@H](C)[C@@H](O[C@@H]2O[C@H](C)C[C@H](N(C)C)[C@H]2O)[C@](C)(O)C[C@@H](C)C(=O)[C@H](C)[C@@H](O)[C@]1(C)O` [Erythromycin, reference compound] displayed an MIC of 0.5 µg/mL (≈ 0.681 µM).

Regarding `CN(C)[C@@H]1C(O)=C(C(N)=O)C(=O)[C@@]2(O)C(O)=C3C(=O)c4c(O)cccc4[C@@](C)(O)[C@H]3C[C@@H]12` [Tetracycline, reference compound], the MIC came to 0.5 µg/mL (≈ 1.13 µM).

Still in this assay, the particulars now being: Table 7, separate study.
`CC1(C)S[C@@H]2[C@H](NC(=O)Cc3ccccc3)C(=O)N2[C@H]1C(=O)O` [Penicillin G, reference compound] yielded an MIC of 32 µg/mL (≈ 95.7 µM).

As for Bacitracin A [reference compound], the MIC is 16 µg/mL.

Consider Gentamicin C [reference compound], for which the MIC came out at 0.5 µg/mL.

In the case of Neomycin [reference compound], the MIC turned out to be 1 µg/mL.

Staying with this assay, now noted: Tables 3 and 4.
In turn, Ac-FRWLLC-NH2 [FRWLLC] gave an IC-50 of 15 µg/mL and an MIC of 13 to 26 µg/mL.

In the case of Ac-FRWLLL-NH2 [FRWLLL], the IC-50 was 18 µg/mL and the MIC lay in the range of 16 to 31 µg/mL.

Take Ac-FRWLLW-NH2 [FRWLLW]: the IC-50 came out at 14 µg/mL and the MIC was 12 to 24 µg/mL.

Ac-FRWWHF-NH2 [FRWWHF]: the IC-50 was found to be 16 µg/mL and the MIC is 31 to 62 µg/mL.

In the case of Ac-FRWWHI-NH2 [FRWWHI], the IC-50 stood at 21 µg/mL and the MIC was in the range of 31 to 62 µg/mL.

As for Ac-FRWWHK-NH2 [FRWWHK], the IC-50 was determined as 30 µg/mL and the MIC was 31 to 62 µg/mL.

Take Ac-FRWWHL-NH2 [FRWWHL]: the IC-50 worked out at 9.3 µg/mL and the MIC was in the range of 16 to 32 µg/mL.

In turn, Ac-FRWWHR-NH2 [FRWWHR] yielded an IC-50 of 18 µg/mL and an MIC of 16 to 32 µg/mL.

With Ac-FRWWHW-NH2 [FRWWHW], the IC-50 stood at 23 µg/mL and the MIC is 31 to 62 µg/mL.

Compound Ac-RRWWCS-NH2 [RRWWCS] gave an IC-50 of 5.9 µg/mL and an MIC of 7 to 14 µg/mL.

Consider Ac-RRWWCT-NH2 [RRWWCT], for which the IC-50 stood at 7.9 µg/mL and the MIC was 4.9 to 10 µg/mL.

On to Ac-RRWWCV-NH2 [RRWWCV], for which the IC-50 was 4.9 µg/mL and the MIC is 3.8 to 7.7 µg/mL.

The compound Ac-RRWWRA-NH2 [RRWWRA] came in with an IC-50 of 14 µg/mL and an MIC of 18 to 36 µg/mL.

Take Ac-RRWWRC-NH2 [RRWWRC]: the IC-50 came to 8.2 µg/mL and the MIC was 10 to 19 µg/mL.

On to “Ac-RRWWRF-NH2 [RRWWRF, Ac-Arg-Arg-Trp-Trp-Arg-PheNH2]”, for which the IC-50 is 5.5 µg/mL and the MIC lay in the range of 6 to 9 µg/mL.

Compound Ac-RRWWRI-NH2 [RRWWRI] returned an IC-50 of 12 µg/mL and an MIC of 12 to 23 µg/mL.

Ac-RRWWRL-NH2 [RRWWRL]: the IC-50 worked out at 12 µg/mL and the MIC fell in the range of 13 to 26 µg/mL.

The test system of the next assay is Candida albicans ATCC 10231. The assay is described as follows: antifungal assay, growth inhibition of C. albicans (OD 620 nm). The class given is cell-based. To be noted: Candida albicans, ATCC10231; Table 9. The procedure: Antifungal studies were carried out Candida albicans ATCC 10231 as the target microbe. The yeast culture was spread onto YM agar plates and incubated at 30° C. for 48 hours. Three colonies of this culture (about 1 mm in diameter each) were then inoculated in 5 ml of 1 X PBS solution. The suspension was vortexed and diluted 10-fold in YM broth, for an approximate final concentration of 10^5 to 5×10^5 CFU (colony forming units)/ml.
Actual concentrations of yeast cultures were determined by plating 100 μl of different solutions of the culture solution (10^-3, 10^-4 and 10^-5) onto solid YM agar plates. After 48 hours of incubation at 30° C., CFU formed were counted from each plate.
The assays were carried out in 96-well tissue culture plates. Eight wells containing only medium of YM broth served as negative controls, whereas eight wells containing medium and yeast culture served as positive controls. These controls were used to detect possible medium contamination and to provide a measure of uninhibited growth of the yeast.
For screening studies, oligopeptide mixtures were added to the yeast suspension in duplicates to reach a final concentration of 1.5 mg/ml. […] The plates were incubated over a period of 48 hours at 30° C., and the optical density (OD) at 24 and 48 hours was determined at 620 nm.
On to `C[C@@H]1[C@H](O)[C@@H](C)/C=C/C=C/C=C/C=C/C=C/C=C/C=C/[C@H](O[C@@H]2O[C@H](C)[C@@H](O)[C@H](N)[C@@H]2O)C[C@@H]2O[C@](O)(C[C@@H](O)C[C@@H](O)[C@H](O)CC[C@@H](O)C[C@@H](O)CC(=O)O[C@H]1C)C[C@H](O)[C@H]2C(=O)O` [Amphotericin B, reference compound], for which the IC50 (as a rule, the concentration that gives 50% inhibition) was determined as 0.5 µg/mL (≈ 0.541 µM).

Still in this assay, the particulars now being: Candida albicans, ATCC10231; Table 9; read-out: MIC.
Take `C[C@@H]1[C@H](O)[C@@H](C)/C=C/C=C/C=C/C=C/C=C/C=C/C=C/[C@H](O[C@@H]2O[C@H](C)[C@@H](O)[C@H](N)[C@@H]2O)C[C@@H]2O[C@](O)(C[C@@H](O)C[C@@H](O)[C@H](O)CC[C@@H](O)C[C@@H](O)CC(=O)O[C@H]1C)C[C@H](O)[C@H]2C(=O)O` [Amphotericin B, reference compound]: the MIC was 2 to 4 µg/mL (≈ 2.16 to 4.33 µM).
